Laboratory results published in patent publication US7935819B2, “Cyclic urea derivatives, preparation thereof and pharmaceutical use thereof as kinase inhibitors” (Aventis Pharma S.A., priority 2006, dated 2011).
Read-outs that look alike come from different tables or passages of the source.

Columns and labels:
[1] = target: T1, IGF-1R (human cytoplasmic domain fused with GST) (Homo sapiens, UniProt P08069); assay: Kinase IGF-1R test (Test A): inhibition of autophosphorylation of the enzyme, HTRF; format: biochemical; settings: 120 μM ATP
T1 construct: The human cytoplasmic domain of IGF-1R was cloned by fusion with glutathione S-transferase (GST); made in house; host or cells: SF21 insect cells (baculovirus, pFastBac-GST)
Experimental: A) Experimental Protocol for the Kinase IGF-1R Test:
The inhibitory activity of the compounds on IGF1R is determined by measuring the inhibition of autophosphorylation of the enzyme using a time-resolved fluorescence test (HTRF). The human cytoplasmic domain of IGF-1R was cloned by fusion with glutathione S-transferase (GST) in the baculovirus expression vector pFastBac-GST. The protein is expressed in the SF21 cells and purified to about 80% homogeneity. For the enzymatic test, the test compound at 10 mM dissolved in DMSO is diluted in 1/3 steps in a 50 mM Hepes, pH 7.5, 5 mM MnCl2, 50 mM NaCl, 3% Glycerol, 0.025% Tween 20 buffer. To measure the inhibition, the successive dilutions of the compound are preincubated for 30 minutes and 90 minutes in the presence of 5 nM of enzyme, the final DMSO concentration not exceeding 1%. The enzymatic reaction is initiated to have a final ATP concentration of 120 μM, and is stopped after 5 minutes by addition of 100 mM Hepes, pH 7.0 buffer containing 0.4 M of potassium fluoride, 133 mM EDTA, 0.1% BSA, the XL665-labelled antibody anti-GST and the anti-phosphotyrosine antibody conjugated to europium cryptate Eu—K (Cis-Bio Int.). The characteristics of the two fluorophores, XL-665 and Eu—K, are available in G. Mathis et al., Anticancer Research, 1997, 17, pages 3011-3014. The energy transfer between the excited europium cryptate to the acceptor XL665 is proportional to the degree of autophosphorylation of IGF-1R. The specific long-lasting signal of XL-665 is measured in a GENios Pro TECAN plate counter. The inhibition of autophosphorylation of IGF-1R at time 30 minutes and 90 minutes with the test compounds of the invention is calculated relative to a 1% in DMSO control, whose activity is measured in the absence of compound. The curve representing the percentage of inhibition as a function of the log of the concentration is established to determine the concentration corresponding to 50% inhibition (IC50).

IGF1R in MCF-7 cells = target: T2, IGF1R in MCF-7 cells (Homo sapiens, UniProt P08069); assay: Autophosphorylation of IGF-1R in MCF7 cells after stimulation with IGF-1 (Test B), ELISA; format: cell-based; settings: compound added one hour before IGF1 stimulation (10 minutes)
T2 construct: endogenous in cells; host or cells: MCF-7 cells
Experimental: B) Measurement of the Autophosphorylation of IGF-1r in MCF7 Cells after Stimulation with IGF-1
Cell Culturing and Execution of the Test:
The autophosphorylation of IGF1R in the IGF1-induced cells is evaluated by means of an ELISA technique (Enzyme Linked ImmunoSorbent Assay). The MCF-7 are seeded at 60 000 cells per well in 6-well plates and incubated at 37° C., 5% CO2 in medium containing 10% serum. After one night in 10% serum, the cells are deprived of serum for 24 hours. The compounds are added to the medium one hour before stimulation with IGF1. After 10 minutes of stimulation with IGF1, the cells are lysed with a buffer (Hepes 50 mM pH 7.6, Triton X100 1%, orthovanadate 2 mM, protease inhibitor cocktail). The cell lysates are incubated on a 96-well plate precoated with an anti-IGF1R antibody, followed by incubation with an anti-phosphotyrosine antibody coupled to the enzyme peroxidase. The level of peroxidase activity (measured by OD with a luminescent substrate) reflects the phosphorylation status of the receptor.
(§1) (i) The tests are performed in duplicate and the mean of the two tests is calculated.
(§2) (ii) The value of the signal of the maximum response is calculated from the positive control: cells stimulated with IGF1 without compound.
(§3) (iii) Value of the signal of the minimum response is calculated from the negative control: cells not stimulated with IGF1 without compound.
(§4) (iv) By using these values as maximum (100%) and minimum (0%), respectively, the data were normalized so as to give a percentage of the maximum response.
(§5) (v) A curve of dose response is plotted and the IC50 (the concentration of which the compound induces a 50% decrease in the signal) of the compound is calculated by non-linear regression analysis.

[2] = target: MEF-IGF1R cells (stable clone transfected with hIGF-1R) (Homo sapiens, UniProt P08069); assay: Proliferation/viability of MEF-IGF1R (Test C), [14C]thymidine incorporation; format: cell-based; settings: rhIGF1 100 ng/mL, 72 hours, read-out: Test C IC50
Experimental: C) Measurement of the Proliferation/Viability of MEF-IGF1R
Cell culture: the MEF-IGF1R cells (stable clone of cells transfected with the receptor hIGF-1R) are cultured at 37° C. under 5% CO2 in EMEM medium containing 10% FCS.
Test procedure: the cells are seeded at 5000 cells per well in 96-well Cytostar plates (Amersham) with 0.2 mL of EMEM culture medium at 37° C. for 18 hours. The cells are then washed twice with EMEM medium and left to culture without serum for 24 hours. The compounds are then added at various concentrations in the presence of rhIGF1 (100 ng/mL) and 0.1 μCi of Thymidine [^14C] (specific activity ˜50 mCi/mmol) to give 0.2 mL of volume per well. After incubation for 72 hours in the presence of the compound, at 37° C. under 5% CO2, the incorporation of Thymidine [^14C] is measured by counting the radioactivity on a Microbeta trilux counter (Perkin-Elmer). The IC50 is determined from 10 increasing concentrations of the compound.
as §1, §2, §3, §4, §5

[3] = preincubation with enzyme 30 minutes, read-out: Test A 30′ IC50
[4] = preincubation with enzyme 90 minutes, read-out: Test A 90′ IC50

T2 sequence (P08069 31-1367): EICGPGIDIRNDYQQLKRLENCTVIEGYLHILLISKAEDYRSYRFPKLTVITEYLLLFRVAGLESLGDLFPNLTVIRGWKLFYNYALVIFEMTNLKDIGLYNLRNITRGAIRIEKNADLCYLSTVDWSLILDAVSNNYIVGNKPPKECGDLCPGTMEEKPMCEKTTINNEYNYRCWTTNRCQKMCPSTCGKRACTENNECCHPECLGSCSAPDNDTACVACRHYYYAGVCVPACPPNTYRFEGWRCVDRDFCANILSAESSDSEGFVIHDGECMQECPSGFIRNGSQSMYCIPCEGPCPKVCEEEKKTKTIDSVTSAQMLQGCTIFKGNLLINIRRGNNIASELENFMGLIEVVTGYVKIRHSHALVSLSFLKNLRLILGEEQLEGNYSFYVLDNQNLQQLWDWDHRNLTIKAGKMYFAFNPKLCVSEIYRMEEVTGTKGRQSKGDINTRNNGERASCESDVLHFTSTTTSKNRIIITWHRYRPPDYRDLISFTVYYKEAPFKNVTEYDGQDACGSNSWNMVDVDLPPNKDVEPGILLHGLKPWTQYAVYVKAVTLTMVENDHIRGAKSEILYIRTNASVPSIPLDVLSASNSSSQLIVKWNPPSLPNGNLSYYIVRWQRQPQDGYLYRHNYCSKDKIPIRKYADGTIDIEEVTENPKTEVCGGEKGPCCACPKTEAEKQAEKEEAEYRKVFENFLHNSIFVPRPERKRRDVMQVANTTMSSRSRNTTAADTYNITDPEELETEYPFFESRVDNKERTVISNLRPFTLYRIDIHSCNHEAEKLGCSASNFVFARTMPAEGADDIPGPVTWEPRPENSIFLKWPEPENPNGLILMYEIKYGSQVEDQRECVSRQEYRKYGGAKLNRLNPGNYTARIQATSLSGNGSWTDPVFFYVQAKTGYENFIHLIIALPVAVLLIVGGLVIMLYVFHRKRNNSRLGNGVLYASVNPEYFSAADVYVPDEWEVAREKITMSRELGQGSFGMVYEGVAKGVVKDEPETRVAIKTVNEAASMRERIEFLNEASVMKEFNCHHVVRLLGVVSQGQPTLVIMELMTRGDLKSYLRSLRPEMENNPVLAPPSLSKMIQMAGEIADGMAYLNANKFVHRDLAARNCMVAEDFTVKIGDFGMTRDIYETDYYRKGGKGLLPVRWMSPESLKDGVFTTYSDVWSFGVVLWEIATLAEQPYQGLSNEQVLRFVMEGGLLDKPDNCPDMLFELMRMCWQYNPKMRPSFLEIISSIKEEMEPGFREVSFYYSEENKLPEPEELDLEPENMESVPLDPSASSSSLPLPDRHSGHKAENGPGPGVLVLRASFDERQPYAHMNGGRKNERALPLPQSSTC
Chain of MEF-IGF1R cells (stable clone transfected with hIGF-1R) (P08069 whole entry, change not shown): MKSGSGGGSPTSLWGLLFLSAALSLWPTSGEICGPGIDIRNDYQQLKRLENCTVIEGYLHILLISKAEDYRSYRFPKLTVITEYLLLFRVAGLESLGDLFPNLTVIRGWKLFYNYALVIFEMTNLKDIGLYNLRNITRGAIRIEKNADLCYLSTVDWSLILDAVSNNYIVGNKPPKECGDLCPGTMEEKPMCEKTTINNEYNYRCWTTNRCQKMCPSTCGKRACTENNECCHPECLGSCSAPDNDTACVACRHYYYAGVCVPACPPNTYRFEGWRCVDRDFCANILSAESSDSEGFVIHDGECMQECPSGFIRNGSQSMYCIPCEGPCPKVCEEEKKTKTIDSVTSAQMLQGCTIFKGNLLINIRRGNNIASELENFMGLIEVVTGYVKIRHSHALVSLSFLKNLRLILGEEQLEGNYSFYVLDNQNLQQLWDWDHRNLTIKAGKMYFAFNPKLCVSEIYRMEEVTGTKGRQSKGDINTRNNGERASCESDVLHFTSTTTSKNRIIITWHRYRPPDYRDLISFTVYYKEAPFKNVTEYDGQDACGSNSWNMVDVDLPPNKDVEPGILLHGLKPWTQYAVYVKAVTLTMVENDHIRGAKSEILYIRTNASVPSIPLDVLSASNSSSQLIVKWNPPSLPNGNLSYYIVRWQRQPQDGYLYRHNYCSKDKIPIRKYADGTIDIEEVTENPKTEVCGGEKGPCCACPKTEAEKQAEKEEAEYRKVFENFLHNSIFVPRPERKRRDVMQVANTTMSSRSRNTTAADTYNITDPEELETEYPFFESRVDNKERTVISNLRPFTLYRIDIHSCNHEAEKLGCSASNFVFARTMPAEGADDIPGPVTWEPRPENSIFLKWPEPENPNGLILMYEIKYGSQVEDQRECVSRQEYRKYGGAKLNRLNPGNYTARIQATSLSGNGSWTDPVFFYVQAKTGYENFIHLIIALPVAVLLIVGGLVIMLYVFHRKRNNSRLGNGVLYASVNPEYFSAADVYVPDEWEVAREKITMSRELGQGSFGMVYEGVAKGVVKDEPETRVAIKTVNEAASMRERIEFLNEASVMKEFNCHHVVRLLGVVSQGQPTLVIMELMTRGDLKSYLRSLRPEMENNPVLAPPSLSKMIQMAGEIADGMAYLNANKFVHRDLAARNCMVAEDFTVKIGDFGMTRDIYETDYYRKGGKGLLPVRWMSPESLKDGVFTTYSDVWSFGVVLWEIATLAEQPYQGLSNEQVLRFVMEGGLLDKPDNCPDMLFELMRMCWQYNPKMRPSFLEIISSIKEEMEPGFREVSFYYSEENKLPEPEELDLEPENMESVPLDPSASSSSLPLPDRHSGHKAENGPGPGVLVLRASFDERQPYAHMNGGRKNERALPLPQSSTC
T1 sequence (P08069 960-1367 limits assumed): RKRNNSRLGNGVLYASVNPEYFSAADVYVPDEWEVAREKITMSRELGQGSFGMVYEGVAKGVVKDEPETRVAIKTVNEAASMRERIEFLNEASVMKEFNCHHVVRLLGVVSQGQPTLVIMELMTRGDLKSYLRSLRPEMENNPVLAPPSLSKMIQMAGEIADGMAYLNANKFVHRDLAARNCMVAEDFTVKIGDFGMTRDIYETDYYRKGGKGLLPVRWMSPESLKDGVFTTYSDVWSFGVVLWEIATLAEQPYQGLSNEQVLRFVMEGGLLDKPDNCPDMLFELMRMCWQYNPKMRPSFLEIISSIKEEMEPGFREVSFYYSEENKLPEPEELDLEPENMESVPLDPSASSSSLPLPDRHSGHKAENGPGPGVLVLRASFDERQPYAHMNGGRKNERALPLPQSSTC

## CC(C)(C)c1ccc(N2C(=O)N(Cc3ccnc(Nc4ccc(O)nc4)c3)C(C)(C)C2=O)cc1 [Example 31M, 3-(4-tert-butylphenyl)-1-({2-[(6-hydroxypyridin-3-yl)amino]pyridin-4-yl}methyl)-5,5-dimethylimidazolidine-2,4-dione]
[1]; [3]
  IC50: 10 to 100 nM
[1]; [4]
  IC50: 10 to 100 nM
IGF1R in MCF-7 cells
  IC50: 10 to 100 nM
[2]
  GI50: 10 to 100 nM

## CC(C)(CO)c1ccc(N2C(=O)N(Cc3ccnc(Nc4cccnc4)c3)C(C)(C)C2=O)cc1 [Example 31N, 3-[4-(2-hydroxy-1,1-dimethylethyl)phenyl]-5,5-dimethyl-1-{[2-(pyridin-3-ylamino)pyridin-4-yl]methyl}-imidazolidine-2,4-dione]
[1]; [3]
  IC50: > 100 nM
[1]; [4]
  IC50: 10 to 100 nM
IGF1R in MCF-7 cells
  IC50: 10 to 100 nM
[2]
  GI50: > 100 nM

## CC(C)(C)c1ccc(N2C(=O)N(Cc3ccnc(NC(=O)Nc4cccnc4)c3)C(C)(C)C2=O)cc1 [Example 31O, 1-(4-{[3-(4-tert-butylphenyl)-5,5-dimethyl-2,4-dioxoimidazolidin-1-yl]methyl}pyridin-2-yl)-3-pyridin-3-ylurea]
[1]; [3]
  IC50: > 100 nM
[1]; [4]
  IC50: > 100 nM
IGF1R in MCF-7 cells
  IC50: 10 to 100 nM
[2]
  GI50: 10 to 100 nM

## CC(C)(C)c1ccc(N2C(=O)N(Cc3ccnc(NC(N)=O)c3)C(C)(C)C2=O)cc1 [Example 31P, 1-(4-{[3-(4-tert-butylphenyl)-5,5-dimethyl-2,4-dioxoimidazolidin-1-yl]methyl}pyridin-2-yl)urea]
[1]; [3]
  IC50: 10 to 100 nM
[1]; [4]
  IC50: < 10 nM
IGF1R in MCF-7 cells
  IC50: 10 to 100 nM
[2]
  GI50: < 10 nM

## COC(=O)Nc1cc(CN2C(=O)N(c3ccc(C(C)(C)C)cc3)C(=O)C2(C)C)ccn1 [Example 31Q, methyl (4-{[3-(4-tert-butylphenyl)-5,5-dimethyl-2,4-dioxoimidazolidin-1-yl]methyl}pyridin-2-yl)carbamate]
[1]; [3]
  IC50: 10 to 100 nM
[1]; [4]
  IC50: < 10 nM
IGF1R in MCF-7 cells
  IC50: < 10 nM
[2]
  GI50: 10 to 100 nM

## CC(C)(C)c1ccc(N2C(=O)N(Cc3ccnc(Nc4ccc(CCN5CCCC5)cc4)c3)C(C)(C)C2=O)cc1 [Example 31U, 3-(4-tert-butylphenyl)-5,5-dimethyl-1-[(2-{[4-(2-pyrrolidin-1-ylethyl)phenyl]amino}pyridin-4-yl)methyl]imidazolidine-2,4-dione]
[1]; [3]
  IC50: 10 to 100 nM
[1]; [4]
  IC50: < 10 nM
IGF1R in MCF-7 cells
  IC50: < 10 nM
[2]
  GI50: < 10 nM
